# How the values were obtained:
# [1] = test system: 8505C (Thyroid Gland Carcinoma); assay: Bliss excess, mean over the matrix (fraction); higher = more synergy
# In short: (§1)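 After 24 hours at 37°C and 5% CO2 in 1536-well plates, cells in DMEM/F12 or RPMI plus 10% FBS received two-drug dose matrices for 72 hours. Viability came from CellTiter-Glo 2.0 luminescence and was scaled as inhibition, anchored at 0 by vehicle wells and at 1 by blank wells. Combination Emax is taken as the second-highest inhibition in the matrix, and Bliss excess as the observed combination effect less EA + EB − EA·EB, with EA and EB the single-agent effects.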
# [2] = test system: CHSA8926 (Chondrosarcoma); assay: as above
# In short: as §1
# [3] = test system: DAN-G (Pancreatic Carcinoma); assay: as above
# In short: as §1
# [4] = test system: ESO51 (Esophageal Adenocarcinoma); assay: as above
# In short: as §1
# [5] = test system: G-361 (Melanoma); assay: as above
# In short: as §1
# [6] = test system: H9 (T-Cell Non-Hodgkin's Lymphoma); assay: as above
# In short: as §1
# [7] = test system: HCC1187 (Breast Carcinoma); assay: as above
# In short: as §1
# [8] = test system: HCC1419 (Breast Carcinoma); assay: as above
# In short: as §1
# [9] = test system: IM-95 (Gastric Carcinoma); assay: as above
# In short: as §1
# [10] = test system: JHH-4 (Hepatocellular Carcinoma); assay: as above
# In short: as §1
# [11] = test system: KMS-12-BM (Plasma Cell Myeloma); assay: as above
# In short: as §1
# [12] = test system: KY821 (Acute Myeloid Leukemia); assay: as above
# In short: as §1
# [13] = test system: MOLM-13 (Acute Myeloid Leukemia); assay: as above
# In short: as §1
# [14] = test system: NCI-H661 (Non-Small Cell Lung Carcinoma); assay: as above
# In short: as §1
# [15] = test system: PC-3 (Prostate Carcinoma); assay: as above
# In short: as §1
# [16] = test system: RD (Rhabdomyosarcoma); assay: as above
# In short: as §1
# [17] = test system: RPMI-8226 (Plasma Cell Myeloma); assay: as above
# In short: as §1
# [18] = test system: SK-GT-2 (Gastric Carcinoma); assay: as above
# In short: as §1
# [19] = test system: SNU-398 (Hepatocellular Carcinoma); assay: as above
# In short: as §1
# [20] = test system: SU-DHL-5 (B-Cell Non-Hodgkin's Lymphoma); assay: as above
# In short: as §1
# [21] = test system: SUP-B15 (B-Lymphoblastic Leukemia); assay: as above
# In short: as §1
# [22] = test system: 8505C (Thyroid Gland Carcinoma); assay: combination Emax (second highest fraction inhibited in the dose matrix, 72 h); higher = more inhibition; extreme values may be limits of the assay
# In short: as §1
# [23] = test system: CHSA8926 (Chondrosarcoma); assay: as above
# In short: as §1
# [24] = test system: DAN-G (Pancreatic Carcinoma); assay: as above
# In short: as §1
# [25] = test system: ESO51 (Esophageal Adenocarcinoma); assay: as above
# In short: as §1
# [26] = test system: G-361 (Melanoma); assay: as above
# In short: as §1
# [27] = test system: H9 (T-Cell Non-Hodgkin's Lymphoma); assay: as above
# In short: as §1
# [28] = test system: HCC1187 (Breast Carcinoma); assay: as above
# In short: as §1
# [29] = test system: HCC1419 (Breast Carcinoma); assay: as above
# In short: as §1
# [30] = test system: IM-95 (Gastric Carcinoma); assay: as above
# In short: as §1
# [31] = test system: JHH-4 (Hepatocellular Carcinoma); assay: as above
# In short: as §1
# [32] = test system: KMS-12-BM (Plasma Cell Myeloma); assay: as above
# In short: as §1
# [33] = test system: KY821 (Acute Myeloid Leukemia); assay: as above
# In short: as §1
# [34] = test system: MOLM-13 (Acute Myeloid Leukemia); assay: as above
# In short: as §1
# [35] = test system: NCI-H661 (Non-Small Cell Lung Carcinoma); assay: as above
# In short: as §1
# [36] = test system: PC-3 (Prostate Carcinoma); assay: as above
# In short: as §1
# [37] = test system: RD (Rhabdomyosarcoma); assay: as above
# In short: as §1
# [38] = test system: RPMI-8226 (Plasma Cell Myeloma); assay: as above
# In short: as §1
# [39] = test system: SK-GT-2 (Gastric Carcinoma); assay: as above
# In short: as §1
# [40] = test system: SNU-398 (Hepatocellular Carcinoma); assay: as above
# In short: as §1
# [41] = test system: SU-DHL-5 (B-Cell Non-Hodgkin's Lymphoma); assay: as above
# In short: as §1
# [42] = test system: SUP-B15 (B-Lymphoblastic Leukemia); assay: as above
# In short: as §1
# 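Wherever Bliss excess, mean over the matrix is given: after 72 h of two-drug dosing.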
smiles,measurement,setting,value
"C[C@@H](c1ccc2nccn2c1)n1nnc2ncc(-c3cnn(C)c3)nc21 [Savolitinib] + CN(CC[C@H](CSC1=CC=CC=C1)NC2=C(C=C(C=C2)S(=O)(=O)NC(=O)C3=CC=C(C=C3)N4CCC(CC4)[C@H](C5=CC=CC=C5C6=CC=C(C=C6)Cl)O)S(=O)(=O)C(F)(F)F)CCO [AZD4320] (first compound max 1 µM, 7x7, partner max 1 µM)",Bliss excess,[1],-0.0719
same,Bliss excess,[2],-0.0241
same,Bliss excess,[3],-0.0378
same,Bliss excess,[4],-0.0038
same,Bliss excess,[5],-0.0621
same,Bliss excess,[6],-0.0425
same,Bliss excess,[7],-0.0091
same,Bliss excess,[8],-0.0736
same,Bliss excess,[9],-0.0477
same,Bliss excess,[10],-0.0309
same,Bliss excess,[11],-0.0005
same,Bliss excess,[12],0.0059
same,Bliss excess,[13],0.0288
same,Bliss excess,[14],-0.0669
same,Bliss excess,[15],-0.0418
same,Bliss excess,[16],-0.0348
same,Bliss excess,[17],-0.0379
same,Bliss excess,[18],-0.0294
same,Bliss excess,[19],-0.0665
same,Bliss excess,[20],-0.0451
same,Bliss excess,[21],-0.0182
same,combination Emax,[22],0.201
same,combination Emax,[23],0.528
same,combination Emax,[24],0.199
same,combination Emax,[25],0.95
same,combination Emax,[26],0.198
same,combination Emax,[27],0.929
same,combination Emax,[28],0.205
same,combination Emax,[29],0.325
same,combination Emax,[30],0.675
same,combination Emax,[31],0.256
same,combination Emax,[32],1
same,combination Emax,[33],1
same,combination Emax,[34],1
same,combination Emax,[35],0.189
same,combination Emax,[36],0.189
same,combination Emax,[37],0.646
same,combination Emax,[38],0.944
same,combination Emax,[39],0.136
same,combination Emax,[40],0.245
same,combination Emax,[41],0.24
same,combination Emax,[42],1
"CC(=O)c1c(C)c2cnc(Nc3ccc(N4CCNCC4)cn3)nc2n(C2CCCC2)c1=O [Palbociclib] + CN(CC[C@H](CSC1=CC=CC=C1)NC2=C(C=C(C=C2)S(=O)(=O)NC(=O)C3=CC=C(C=C3)N4CCC(CC4)[C@H](C5=CC=CC=C5C6=CC=C(C=C6)Cl)O)S(=O)(=O)C(F)(F)F)CCO [AZD4320] (first compound max 10 µM, 7x7, partner max 1 µM)",Bliss excess,[1],-0.0924
same,Bliss excess,[2],-0.0753
same,Bliss excess,[3],-0.0408
same,Bliss excess,[4],-0.0853
same,Bliss excess,[5],-0.0222
same,Bliss excess,[6],-0.0114
same,Bliss excess,[7],-0.0429
same,Bliss excess,[9],-0.133
same,Bliss excess,[10],-0.0051
same,Bliss excess,[11],0.0159
same,Bliss excess,[12],-0.0069
same,Bliss excess,[13],-0.0259
same,Bliss excess,[14],-0.0643
same,Bliss excess,[15],-0.0472
same,Bliss excess,[16],0.0323
same,Bliss excess,[17],-0.0531
same,Bliss excess,[18],-0.0151
same,Bliss excess,[19],-0.0484
same,Bliss excess,[20],-0.0381
same,Bliss excess,[21],-0.0515
same,combination Emax,[22],0.0974
same,combination Emax,[23],0.741
same,combination Emax,[24],0.288
same,combination Emax,[25],0.15
same,combination Emax,[26],0.598
same,combination Emax,[27],0.983
same,combination Emax,[28],0.239
same,combination Emax,[30],0.471
same,combination Emax,[31],0.703
same,combination Emax,[32],1
same,combination Emax,[33],1
same,combination Emax,[34],1
same,combination Emax,[35],0.107
same,combination Emax,[36],0.159
same,combination Emax,[37],0.875
same,combination Emax,[38],0.95
same,combination Emax,[39],0.531
same,combination Emax,[40],0.308
same,combination Emax,[41],1
same,combination Emax,[42],1
